Laboratory results published in EP4043466B1, “PRC2 INHIBITORS” (Mirati Therapeutics, Inc., priority 2018, dated 2019).
pIC50: −log10 of the molar value.

Columns and labels:
[1] = molecular target: purified human, His-tagged PRC2 complex (Homo sapiens, UniProt O75530+Q15910); assay: Hot Spot HMT assay: inhibition of PRC2 enzymatic activity (transfer of tritiated methyl from SAM to core histone, filter binding); type: biochemical; conditions: Inhibition of PRC2-mediated enzymatic activity; 10 nM PRC2 complex, 0.05 mg/ml core histone H3, 1 uM 3H-SAM, 1 hr at 30°C
Outline: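 Five-subunit complex (His-EZH2, Flag-EED, His-SUZ12, His-AEBP2, His-RbAp48) at 10 nM with 0.05 mg/ml core histone H3, pH 8 Tris buffer, 1% DMSO; 20 min compound pre-incubation at 30°C. Started with 1 uM [3H]-SAM, 1 hr at 30°C; tritiated H3 counted by scintillation. Compounds diluted from 1.0 µM top concentration.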

[2] = test system: PRC2-mediated histone H3 methylation; assay: Tri-Methyl Histone H3 (Lys 27) Sandwich ELISA in Pfeiffer cells: inhibition of PRC2-mediated histone H3 methylation; type: cell-based, human; conditions: Inhibition of EZH2-mediated histone H3 trimethylation, Pfeiffer cells (EZH2 A677G), 96 hours incubation
Excerpt: The Pfeiffer cell line was established from a […] from a patient having metastatic diffuse large B-cell lymphoma (DLBCL). This cell line expresses a mutant form of the EZH2 enzyme (A677G) that results in enhanced EZH2 activity leading to increased methylation of histone H3 Lys27. Increased trimethylation of histone H3 Lys27 is believed to be implicated in tumorgenesis and poor clinical prognosis in lymphomas (McCabe et al., (2012) Nature 492:108-112).
Inhibition of PRC2-mediated histone H3 methylation by compounds of Formula (I) was measured by ELISA using a Tri-Methyl Histone H3 (Lys 27) Sandwich ELISA Kit (Cell Signaling Tech #7866C) in accordance with the manufacturer's instructions. Briefly, Pfeiffer cells were cultured in RPMI medium supplemented with 10% fetal bovine serum and 1% penicillin and 1% streptomycin in 96 well culture plates at 37°C to a density of 8000 cells/90µl/well and the cells were harvested. A series of 3-fold serial dilutions of each test compound of Formula (I) were prepared in RPMI medium and added to the cells at final concentrations ranging from 1µM to 0.15 nM. The plates were incubated at 37°C for 96 hours.
After incubation, the cells were pelleted by centrifugation in a pre-cooled 4°C rotor at 1, 100 rpm for 10 min and the supernatant was removed by aspiration. The cell pellet was resuspended in 55µl of Lysis Buffer (0.4M HCl) and incubated on ice with periodic shaking for 30 minutes. The lysed cells were subjected to centrifugation at 4, 200 rpm for 10 min at 4°C and the supernatant containing acid-soluble proteins was collected and the remainder discarded. The acid-soluble proteins were brought to a neutral pH by the addition of 20 µl of Neutralization Buffer (1 M Sodium phosphate, dibasic (pH 12.5), 2.5 mM DTT and 1 mM PMSF) and the neutralized lysates were analyzed by ELISA.
A 65 µl aliquot of each cell lysate was added to a well of a microwell strip, the microwells were sealed using tape and incubated either at 37°C for two hours or at 4°C overnight. After incubation, the tape was removed at the microwells were washed four times using 200 µl of 1X Wash Buffer. To each washed microwell, a 100 µl aliquot of an antitrimethyl histone H3 Lys27 Detection Antibody solution was added and the microwells were incubated at 37°C for one hour. The Detection Antibody solution was removed by aspiration and the wells were washed four times each using 200 µl of 1X Wash Buffer.
A 100 µl aliquot of an HRP-linked secondary antibody was added to each well, the wells were sealed with tape and incubated at 37°C for 30 min. The HRP-linked secondary antibody solution was removed by aspiration and the wells were washed four times using 200 µl of 1X Wash Buffer. A 100 µl aliquot of a TMB substrate was added to each well, the wells were sealed with tape and incubated at 37°C for 10 min or 25°C for 30 min. The reaction was stopped by the addition of 100 µl aliquot of a STOP solution and the plate was shaken briefly. The degree of histone H3 trimethylation was determined using a spectrophotometric readout by measuring the absorbance at 450 nm and then calculating the amount of trimethylated histone H3. A = ≤100 nM; B = >100 nM - ≤500 nM; C = >500 nM and N.D. = not determined.

Karpas 422 cells = assay: Karpas 422 cell viability, CTG (Cell Titre Glo) assay; type: cell-based, human; conditions: Inhibition of proliferation of Karpas 422 cells (EZH2 Y641N), viability measured Day 4, Day 7 or Day 11, time point of the tabulated values not stated
Outline: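 Karpas 422 cells (EZH2 Y641N, DLBCL) plated at 1000 cells/well in RPMI with 20% FBS, exposed to compound 10µM down to 1.5nM in 3-fold steps at 37 °C. Viability by CellTiter-Glo on Days 4, 7 and 11; Day 11 plates re-fed with fresh medium and compound on Day 7. IC50 per time point.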

Sequence of purified human, His-tagged PRC2 complex (Q15910 whole entry): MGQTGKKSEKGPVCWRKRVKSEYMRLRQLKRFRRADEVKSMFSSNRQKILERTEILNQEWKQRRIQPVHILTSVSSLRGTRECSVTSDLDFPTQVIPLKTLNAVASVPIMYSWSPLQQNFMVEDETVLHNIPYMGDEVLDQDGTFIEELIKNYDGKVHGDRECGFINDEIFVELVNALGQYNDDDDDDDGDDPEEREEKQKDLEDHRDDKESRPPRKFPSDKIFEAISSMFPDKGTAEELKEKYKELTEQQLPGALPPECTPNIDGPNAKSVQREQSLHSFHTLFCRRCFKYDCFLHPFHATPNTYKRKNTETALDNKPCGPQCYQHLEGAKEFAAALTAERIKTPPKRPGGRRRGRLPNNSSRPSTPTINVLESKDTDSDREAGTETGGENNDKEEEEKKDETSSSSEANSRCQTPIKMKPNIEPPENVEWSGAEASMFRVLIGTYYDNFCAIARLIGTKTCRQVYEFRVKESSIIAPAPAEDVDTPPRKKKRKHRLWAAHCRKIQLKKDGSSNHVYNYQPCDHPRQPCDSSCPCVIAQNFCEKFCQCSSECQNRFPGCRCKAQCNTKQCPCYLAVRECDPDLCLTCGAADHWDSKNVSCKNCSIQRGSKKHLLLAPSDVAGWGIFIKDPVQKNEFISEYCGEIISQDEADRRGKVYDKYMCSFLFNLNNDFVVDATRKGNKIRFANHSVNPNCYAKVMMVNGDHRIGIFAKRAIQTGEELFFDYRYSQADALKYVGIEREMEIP
Sequence of purified human, His-tagged PRC2 complex (O75530 whole entry): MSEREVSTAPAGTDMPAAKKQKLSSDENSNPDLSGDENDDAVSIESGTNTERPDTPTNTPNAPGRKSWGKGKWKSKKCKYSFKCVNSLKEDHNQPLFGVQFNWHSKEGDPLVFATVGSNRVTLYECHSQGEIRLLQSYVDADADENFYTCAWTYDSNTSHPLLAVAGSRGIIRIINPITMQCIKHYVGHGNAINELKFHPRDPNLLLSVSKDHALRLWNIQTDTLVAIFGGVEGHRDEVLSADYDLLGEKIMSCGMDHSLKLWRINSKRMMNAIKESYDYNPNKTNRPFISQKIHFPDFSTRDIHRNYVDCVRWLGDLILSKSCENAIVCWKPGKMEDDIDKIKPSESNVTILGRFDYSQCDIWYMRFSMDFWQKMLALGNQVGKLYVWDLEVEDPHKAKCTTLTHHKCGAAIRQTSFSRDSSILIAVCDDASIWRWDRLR
Sequence of purified human, His-tagged PRC2 complex (Q15022 whole entry partner): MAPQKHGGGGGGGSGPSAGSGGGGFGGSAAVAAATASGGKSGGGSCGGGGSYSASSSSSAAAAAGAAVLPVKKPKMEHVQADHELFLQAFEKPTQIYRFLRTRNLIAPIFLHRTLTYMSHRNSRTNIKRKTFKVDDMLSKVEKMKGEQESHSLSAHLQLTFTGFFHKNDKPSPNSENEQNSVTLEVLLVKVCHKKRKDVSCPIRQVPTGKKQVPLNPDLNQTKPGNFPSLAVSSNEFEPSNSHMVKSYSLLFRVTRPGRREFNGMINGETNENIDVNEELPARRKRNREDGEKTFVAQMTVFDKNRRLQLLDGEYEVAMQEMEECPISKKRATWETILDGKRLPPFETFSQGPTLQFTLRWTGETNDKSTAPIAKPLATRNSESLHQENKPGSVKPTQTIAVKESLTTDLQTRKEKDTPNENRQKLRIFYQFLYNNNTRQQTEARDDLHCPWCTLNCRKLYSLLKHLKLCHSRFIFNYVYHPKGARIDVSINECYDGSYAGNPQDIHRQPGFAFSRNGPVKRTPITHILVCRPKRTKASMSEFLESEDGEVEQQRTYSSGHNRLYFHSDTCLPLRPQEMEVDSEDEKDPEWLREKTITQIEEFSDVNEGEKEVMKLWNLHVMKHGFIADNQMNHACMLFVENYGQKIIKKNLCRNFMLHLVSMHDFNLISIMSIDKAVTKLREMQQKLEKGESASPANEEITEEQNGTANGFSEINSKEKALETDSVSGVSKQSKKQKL
Sequence of purified human, His-tagged PRC2 complex (Q6ZN18 whole entry partner): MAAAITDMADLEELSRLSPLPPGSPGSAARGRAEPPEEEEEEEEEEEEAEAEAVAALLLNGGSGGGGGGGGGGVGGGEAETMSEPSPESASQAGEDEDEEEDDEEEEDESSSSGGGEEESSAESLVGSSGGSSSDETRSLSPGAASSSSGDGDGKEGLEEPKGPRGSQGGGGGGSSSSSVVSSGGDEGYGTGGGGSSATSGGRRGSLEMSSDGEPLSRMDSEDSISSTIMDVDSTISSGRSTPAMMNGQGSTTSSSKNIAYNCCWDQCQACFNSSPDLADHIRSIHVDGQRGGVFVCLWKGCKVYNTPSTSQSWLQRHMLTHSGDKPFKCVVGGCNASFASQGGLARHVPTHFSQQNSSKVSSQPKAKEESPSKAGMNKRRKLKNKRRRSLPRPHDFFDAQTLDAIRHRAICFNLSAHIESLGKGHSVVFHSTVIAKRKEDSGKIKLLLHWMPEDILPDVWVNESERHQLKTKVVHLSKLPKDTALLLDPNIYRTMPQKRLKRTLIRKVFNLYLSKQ
Sequence of purified human, His-tagged PRC2 complex (Q09028 whole entry partner): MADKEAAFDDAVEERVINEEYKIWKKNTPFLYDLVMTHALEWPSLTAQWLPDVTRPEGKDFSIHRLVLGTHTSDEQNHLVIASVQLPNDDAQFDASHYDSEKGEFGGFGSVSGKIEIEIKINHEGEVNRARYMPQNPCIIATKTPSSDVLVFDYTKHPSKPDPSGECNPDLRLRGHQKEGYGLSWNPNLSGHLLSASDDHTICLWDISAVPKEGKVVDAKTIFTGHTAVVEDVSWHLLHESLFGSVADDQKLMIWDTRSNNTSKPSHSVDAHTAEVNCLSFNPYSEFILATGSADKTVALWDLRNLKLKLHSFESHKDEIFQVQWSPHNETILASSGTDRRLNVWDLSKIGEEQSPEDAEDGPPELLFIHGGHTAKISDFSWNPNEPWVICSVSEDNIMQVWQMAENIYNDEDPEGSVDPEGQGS

Compound	pIC50 [1]	pIC50 [2]	pIC50 (Karpas 422 cells)	pIC50 ([2]; Homo sapiens)	pIC50 (Karpas 422 cells; Homo sapiens)
8-(4-((dimethylamino)methyl)phenyl)-5-(((5-fluoro-2,3-dihydrobenzofuran-4-yl)methyl-d2)amino)imidazo[1,2-c]pyrimidine-2-carbonitrile [Example 165]	> 7.00	6.30 to 7.00	≥ 6.60		
Cc1cc(C2CCCN2)ccc1-c1cnc(NCc2c(F)ccc3c2CCO3)n2cc(C#N)nc12 (single isomer, unassigned) [Example 214, 5-(((5-fluoro-2,3-dihydrobenzofuran-4-yl)methyl)amino)-8-(2-methyl-4-(pyrrolidin-2-yl)phenyl)imidazo[1,2-c]pyrimidine-2-carbonitrile]	> 7.00	6.30 to 7.00	≥ 6.60		
Cc1ncccc1-c1cnc(NCc2c(F)ccc3occc23)n2cc(C(=O)O)nc12 [Example 3, 5-(((5-fluorobenzofuran-4-yl)methyl)amino)-8-(2-methylpyridin-3-yl)imidazo[1,2-c]pyrimidine-2-carboxylic acid]	6.30 to 7.00			< 6.30	< 6.30
Cc1cc(-c2cnc(NCc3c(F)ccc4c3CCO4)n3cc(C(N)=O)nc23)n(C)n1 [Example 11, 8-(1,3-dimethyl-1H-pyrazol-5-yl)-5-(((5-fluoro-2,3-dihydrobenzofuran-4-yl)methyl)amino)imidazo[1,2-c]pyrimidine-2-carboxamide]	> 7.00			≥ 7.00	≥ 6.60
CN(C)C(=O)c1ccc(-c2cnc(NCc3c(F)ccc4c3CCO4)n3cc(C#N)nc23)c(Cl)c1 [Example 31, 3-chloro-4-(2-cyano-5-(((5-fluoro-2,3-dihydrobenzofuran-4-yl)methyl)amino)imidazo[1,2-c]pyrimidin-8-yl)-N,N-dimethylbenzamide]	> 7.00			≥ 7.00	≥ 6.60
Cc1cc(CN(C)C)ccc1-c1cnc(NCc2c(F)ccc3c2CCO3)n2cc(C#N)nc12 [Example 32, 8-(4-((dimethylamino)methyl)-2-methylphenyl)-5-(((5-fluoro-2,3-dihydrobenzofuran-4-yl)methyl)amino)imidazo[1,2-c]pyrimidine-2-carbonitrile]	6.30 to 7.00			≥ 7.00	≥ 6.60
CN(C)C(=O)c1ccc(-c2cnc(NCc3c(F)ccc4c3CCO4)n3cc(C#N)nc23)cc1F [Example 36, 4-(2-cyano-5-(((5-fluoro-2,3-dihydrobenzofuran-4-yl)methyl)amino)imidazo[1,2-c]pyrimidin-8-yl)-2-fluoro-N,N-dimethylbenzamide]	> 7.00			≥ 7.00	≥ 6.60
CN(C)C(=O)c1cc(F)c(-c2cnc(NCc3c(F)ccc4c3CCO4)n3cc(C#N)nc23)cc1F [Example 38, 4-(2-cyano-5-(((5-fluoro-2,3-dihydrobenzofuran-4-yl)methyl)amino)imidazo[1,2-c]pyrimidin-8-yl)-2,5-difluoro-N,N-dimethylbenzamide]	> 7.00			≥ 7.00	≥ 6.60
CN(C)Cc1cc(F)c(-c2cnc(NCc3c(F)ccc4c3CCO4)n3cc(C#N)nc23)cc1F [Example 39, 8-(4-((dimethylamino)methyl)-2,5-difluorophenyl)-5-(((5-fluoro-2,3-dihydrobenzofuran-4-yl)methyl)amino)imidazo[1,2-c]pyrimidine-2-carbonitrile]	> 7.00			≥ 7.00	≥ 6.60
N#Cc1cn2c(NCc3c(F)ccc4c3CCO4)ncc(-c3ccc(S(N)(=O)=O)cc3)c2n1 [Example 47, 4-(2-cyano-5-(((5-fluoro-2,3-dihydrobenzofuran-4-yl)methyl)amino)imidazo[1,2-c]pyrimidin-8-yl)benzenesulfonamide]	> 7.00			≥ 7.00	≥ 6.60
Cc1cc(S(=O)(=O)N(C)C)ccc1-c1cnc(NCc2c(F)ccc3c2CCO3)n2cc(C#N)nc12 [Example 48, 4-(2-cyano-5-(((5-fluoro-2,3-dihydrobenzofuran-4-yl)methyl)amino)imidazo[1,2-c]pyrimidin-8-yl)-N,N,3-trimethylbenzenesulfonamide]	> 7.00			6.30 to 7.00	≥ 6.60
N#Cc1cn2c(NCc3c(F)ccc4c3CCO4)ncc(-c3ccc(CN4CCCC4=O)cc3)c2n1 [Example 49, 5-(((5-fluoro-2,3-dihydrobenzofuran-4-yl)methyl)amino)-8-(4-((2-oxopyrrolidin-1-yl)methyl)phenyl)imidazo[1,2-c]pyrimidine-2-carbonitrile]	> 7.00			6.30 to 7.00	≥ 6.60
COC1CN(Cc2ccc(-c3cnc(NCc4c(F)ccc5c4CCO5)n4cc(C#N)nc34)cc2)C1 [Example 50, 5-(((5-fluoro-2,3-dihydrobenzofuran-4-yl)methyl)amino)-8-(4-((3-methoxyazetidin-1-yl)methyl)phenyl)imidazo[1,2-c]pyrimidine-2-carbonitrile]	> 7.00			6.30 to 7.00	≥ 6.60
N#Cc1cn2c(NCc3c(F)ccc4c3CCO4)ncc(-c3ccncn3)c2n1 [Example 57, 5-(((5-fluoro-2,3-dihydrobenzofuran-4-yl)methyl)amino)-8-(pyrimidin-4-yl)imidazo[1,2-c]pyrimidine-2-carbonitrile]	> 7.00			6.30 to 7.00	≥ 6.60
CN(C)S(=O)(=O)c1ccc(-c2cnc(NCc3c(F)ccc4c3CCO4)n3cc(C#N)nc23)cc1 [Example 58, 4-(2-cyano-5-(((5-fluoro-2,3-dihydrobenzofuran-4-yl)methyl)amino)imidazo[1,2-c]pyrimidin-8-yl)-N,N-dimethylbenzenesulfonamide]	> 7.00			6.30 to 7.00	≥ 6.60
CN(C)c1ccc(-c2cnc(NCc3c(F)ccc4c3CCO4)n3cc(C#N)nc23)cn1 [Example 60, 8-(6-(dimethylamino)pyridin-3-yl)-5-(((5-fluoro-2,3-dihydrobenzofuran-4-yl)methyl)amino)imidazo[1,2-c]pyrimidine-2-carbonitrile]	6.30 to 7.00			< 6.30	6.30 to 6.60
CN(C)Cc1ccc(-c2cnc(NCc3c(F)ccc4c3CCO4)n3cc(C#N)nc23)c(F)c1 [Example 61, 8-(4-((dimethylamino)methyl)-2-fluorophenyl)-5-(((5-fluoro-2,3-dihydrobenzofuran-4-yl)methyl)amino)imidazo[1,2-c]pyrimidine-2-carbonitrile]	> 7.00			≥ 7.00	≥ 6.60
Cc1ncc(F)cc1-c1cnc(NCc2c(F)ccc3c2CCO3)n2cc(C#N)nc12 [Example 62, 5-(((5-fluoro-2,3-dihydrobenzofuran-4-yl)methyl)amino)-8-(5-fluoro-2-methylpyridin-3-yl)imidazo[1,2-c]pyrimidine-2-carbonitrile]	> 7.00			6.30 to 7.00	≥ 6.60
